Results on seven compounds are retold here after ChEMBL document CHEMBL1144363, “Human immunodeficiency virus-reverse transcriptase inhibition and hepatitis C virus RNA-dependent RNA polymerase inhibition activities of fullerene derivatives” (Bioorg Med Chem Lett, 2005).

Bounds are passed on as bounds.

The target of assay [1] is RNA-directed RNA polymerase (Hepacivirus hominis, UniProt O39930). In words: Inhibitory concentration against Hepatitis C virus-RNA-dependent RNA polymerase.
The target in assay [2] is Human immunodeficiency virus type 1 reverse transcriptase (Human immunodeficiency virus 1, UniProt Q72547). In words: Inhibitory concentration against HIV-Reverse transcriptase.

Sequence of RNA-directed RNA polymerase (O39930 whole entry): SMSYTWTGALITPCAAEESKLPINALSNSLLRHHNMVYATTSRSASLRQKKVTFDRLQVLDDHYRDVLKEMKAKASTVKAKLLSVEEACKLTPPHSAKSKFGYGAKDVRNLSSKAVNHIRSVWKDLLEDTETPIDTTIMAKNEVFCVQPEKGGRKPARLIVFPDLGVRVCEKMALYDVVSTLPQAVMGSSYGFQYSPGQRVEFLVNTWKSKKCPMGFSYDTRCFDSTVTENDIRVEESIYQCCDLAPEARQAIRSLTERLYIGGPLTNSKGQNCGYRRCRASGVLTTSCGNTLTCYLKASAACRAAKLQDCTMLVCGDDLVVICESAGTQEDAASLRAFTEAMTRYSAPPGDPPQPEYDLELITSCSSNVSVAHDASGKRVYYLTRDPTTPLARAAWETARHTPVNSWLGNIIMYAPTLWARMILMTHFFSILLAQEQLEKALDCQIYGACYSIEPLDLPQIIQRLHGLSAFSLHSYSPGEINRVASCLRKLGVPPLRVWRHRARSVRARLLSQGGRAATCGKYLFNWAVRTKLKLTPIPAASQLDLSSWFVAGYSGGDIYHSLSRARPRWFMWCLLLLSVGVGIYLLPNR

On to `CCCCn1c(=O)c(C2=NS(=O)(=O)c3ccccc3N2)c(O)c2ccccc21`, for which half-maximal inhibition in assay [1] (IC50) required 100 nM. This lies in the sub-micromolar range.
Turning to `C[N+]1(C)C[C@]23c4c5c6c7c8c9c%10c%11c%12c%13c%14c%15c%16c%17c%18c%19c%20c(c2c2c4c4c6c6c8c%10c8c%12c%10c%14c(c%15%19)c%12c%20c2c2c4c6c8c%10c%122)[C@@H]%18[C@H]2c4c6c8c%10c(c4-%17)[C@@H]%16[C@H]%13[C@@]%114C[N+](C)(C)C[C@]%104C=9[C@H]8[C@@H]7C5=C6[C@]23C1`, the IC50 came to 1400 nM in assay [2] and 310 nM in assay [1].
For `O=C(O)C1(C(=O)O)[C@]23c4c5c6c7c8c9c%10c%11c%12c%13c%14c%15c%16c%17c%18c%19c%20c(c2c2c4c4c6c6c8c%10c8c%12c%10c%14c(c%15%19)c%12c%20c2c2c4c6c8c%10c%122)[C@@H]%18[C@H]2c4c6c8c%10c(c4-%17)[C@@H]%16[C@H]%13[C@@]%114C(C(=O)O)(C(=O)O)[C@]%104C=9[C@H]8[C@@H]7C5=C6[C@@]213` the same measures were 1200 nM and 3200 nM.
On the same counts, the results for `O=C(O)CN1C[C@@]23C4=C5c6c7c8c9c(c%10c%11c%12c%13c%14c%15c%16c%17c%18c%19c%20c%21c%22c%23c(c6c6c8c8c%24c9c%11c9c(c%16%12)c%17c%11c%19c%12c%21c%23c6c8c%12c%11c9%24)[C@@H]5[C@@H]5C=%22[C@H]6c8c(c-%14c(c4c85)[C@@H]2[C@H]%13%10)[C@H]%15[C@@H]%18[C@@H]%206)[C@]73[C@@H]1C(=O)O` are 1000 nM and more than 10000 nM.
Regarding `CCCCCCCCCC[N@+]1(C)C[C@@]23c4c5c6c7c8c9c%10c%11c%12c%13c%14c%15c%16c%17c%18c%19c%20c%21c(c2c2c4c4c6c9c6c4c4c2c%21c2c%19c(c%18%14)c9c%13c%10c6c9c24)C2=C4c6c(c-%16c9c%10c6[C@H]([C@@H]5C7=C%10[C@]5(C[N+](C)(C)C[C@]8%115)[C@H]9[C@H]%15%12)[C@@]43C1)[C@@H]%17[C@H]2%20`, the IC50 in assay [2] came out at 1300 nM; in assay [1] it was 1400 nM.
For `C[N+]1(C)C[C@]23c4c5c6c7c8c9c%10c%11c%12c%13c%14c%15c%16c%17c%18c%19c%20c%21c(c2c2c4c4c6c9c6c4c4c2c%21c2c(c%16%20)c%15c9c%13c%10c6c9c24)[C@@H]%19[C@H]2c4c6c9c%10c(c4-%18)[C@@H]%17[C@@H]%14C%12=C%10[C@]4(C[N+](C)(C)C[C@@]8%114)[C@H]9[C@@H]7C5=C6[C@]23C1` the same measures were 1700 nM and 310 nM.
Consider `C[N+]1(C)C[C@@]23C4=C5C6=C7c8c9c%10c%11c%12c%13c%14c%15c%16c%17c%18c%19c%20c%21c%22c%23c%24c%25c%26c%27c(c(c8c8c%10c%13c(c%278)c8c%14c%17c(c%24c%22%18)c%268)[C@@]72C1)[C@H]%25[C@@H]3C=%23[C@@H]4[C@H]%21c1c5c2c3c(c1-%20)[C@H]([C@H]%19%16)[C@@]1(C[N+](C)(C)C[C@]%12%151)C3=C%11[C@H]9[C@H]62`, for which the values for the IC50 in assay [2] and in assay [1] were 1600 nM and 240 nM, respectively.
